Calls of active or inactive are those of the source. No cut-off for these calls is given here.
Assays:
[1] = molecular target: Hematopoietic prostaglandin D synthase (Homo sapiens, UniProt O60760); assay: Inhibition of H-PGDS (unknown origin) using fluorescent probe by competition binding assay
KU812 [2] = assay: Suppression of PGD2 production in human KU812 cells measured in presence of compound 43 up to 3000 pM incubated for 6 hrs by LC-MS analysis; type: functional, cell-based
[3] = molecular target: T1, Protein cereblon/Hematopoietic prostaglandin D synthase (Homo sapiens, UniProt O60760+Q96SW2); assay: PROTAC activity at H-PGDS/CRBN in human KU812 cells assessed as H-PGDS degradation in presence of MLN7243 at 100 pM measured after 6 hrs by Western blot analysis; type: cell-based; details: KU812 cell line
Target sequence in this assay (O60760 whole entry, looked up): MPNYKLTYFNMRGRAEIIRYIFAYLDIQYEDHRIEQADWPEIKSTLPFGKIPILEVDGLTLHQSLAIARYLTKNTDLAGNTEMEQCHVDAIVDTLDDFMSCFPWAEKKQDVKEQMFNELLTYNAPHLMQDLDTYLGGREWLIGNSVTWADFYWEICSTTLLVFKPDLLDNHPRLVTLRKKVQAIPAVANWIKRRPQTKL
Target sequence in this assay (Q96SW2 whole entry, looked up): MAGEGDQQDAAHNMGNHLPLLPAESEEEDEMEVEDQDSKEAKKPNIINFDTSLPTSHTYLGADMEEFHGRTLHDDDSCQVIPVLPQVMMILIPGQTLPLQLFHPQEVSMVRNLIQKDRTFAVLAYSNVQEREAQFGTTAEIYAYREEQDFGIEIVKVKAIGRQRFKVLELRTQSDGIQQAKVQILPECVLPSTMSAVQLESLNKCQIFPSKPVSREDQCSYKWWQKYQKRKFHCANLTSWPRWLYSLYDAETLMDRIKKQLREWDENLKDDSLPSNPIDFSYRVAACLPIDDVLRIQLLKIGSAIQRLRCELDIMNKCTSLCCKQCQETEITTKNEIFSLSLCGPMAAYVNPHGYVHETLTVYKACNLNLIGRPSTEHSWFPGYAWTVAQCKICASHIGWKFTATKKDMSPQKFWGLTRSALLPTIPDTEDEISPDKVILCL

KU812 [4] = assay: Effect on H-PGDS mRNA level in human KU812 cells measured up to 10000 pM incubated for 6 hrs by quantitative RT-PCR analysis; type: functional, cell-based
[5] = molecular target: T1, Protein cereblon/Hematopoietic prostaglandin D synthase; assay: PROTAC activity at H-PGDS/CRBN in human KU812 cells assessed as H-PGDS degradation in presence of MG132 at 100 pM measured after 6 hrs by Western blot analysis; type: cell-based; details: KU812 cell line
Target sequence in this assay (O60760 whole entry, looked up): as the sequence (O60760 whole entry, looked up) above
Target sequence in this assay (Q96SW2 whole entry, looked up): as the sequence (Q96SW2 whole entry, looked up) above

[6] = molecular target: T1, Protein cereblon/Hematopoietic prostaglandin D synthase; assay: PROTAC activity at H-PGDS/CRBN in human KU812 cells assessed as reduction in H-PGDS level at 100 pM measured after 6 hrs by Western blot analysis relative to control; type: cell-based; set-up: scale not given: the % may be the effect or the level left; details: KU812 cell line
Target sequence in this assay (O60760 whole entry, looked up): as the sequence (O60760 whole entry, looked up) above
Target sequence in this assay (Q96SW2 whole entry, looked up): as the sequence (Q96SW2 whole entry, looked up) above

[7] = molecular target: T1, Protein cereblon/Hematopoietic prostaglandin D synthase; assay: PROTAC activity at H-PGDS/CRBN in human KU812 cells assessed as reduction in H-PGDS level at 10 pM measured after 6 hrs by Western blot analysis relative to control; type: cell-based; set-up: scale not given: the % may be the effect or the level left; details: KU812 cell line
Target sequence in this assay (O60760 whole entry, looked up): as the sequence (O60760 whole entry, looked up) above
Target sequence in this assay (Q96SW2 whole entry, looked up): as the sequence (Q96SW2 whole entry, looked up) above

[8] = molecular target: T1, Protein cereblon/Hematopoietic prostaglandin D synthase; assay: PROTAC activity at H-PGDS/CRBN in human KU812 cells assessed as H-PGDS degradation measured after 24 hrs by Western blot analysis; type: cell-based; details: KU812 cell line
Target sequence in this assay (O60760 whole entry, looked up): as the sequence (O60760 whole entry, looked up) above
Target sequence in this assay (Q96SW2 whole entry, looked up): as the sequence (Q96SW2 whole entry, looked up) above

[9] = molecular target: T1, Protein cereblon/Hematopoietic prostaglandin D synthase; assay: PROTAC activity at H-PGDS/CRBN in human KU812 cells assessed as H-PGDS degradation measured after 6 hrs by Western blot analysis; type: cell-based; details: for DC50: ku812 cell line
[10] = molecular target: T1, Protein cereblon/Hematopoietic prostaglandin D synthase; assay: PROTAC activity at H-PGDS/CRBN in human KU812 cells assessed as H-PGDS degradation in presence of pomalidomide measured after 6 hrs by Western blot analysis; type: cell-based; details: KU812 cell line
Target sequence in this assay (O60760 whole entry, looked up): as the sequence (O60760 whole entry, looked up) above
Target sequence in this assay (Q96SW2 whole entry, looked up): as the sequence (Q96SW2 whole entry, looked up) above

[11] = molecular target: T1, Protein cereblon/Hematopoietic prostaglandin D synthase; assay: PROTAC activity at H-PGDS/CRBN in human MEG01s cells assessed as H-PGDS degradation measured after 6 to 24 hrs by Western blot analysis; type: cell-based; details: time 6-24 hrs

Hematopoietic prostaglandin D synthase, sequence (O60760 whole entry): as the sequence (O60760 whole entry, looked up) above

IC50 [1] [nM] | DC50 [9] [nM] | inhibition [1] | SMILES | Activity (KU812 [2]) | other results
170 | 0.0173 | – | O=C1CCC(N2C(=O)c3cccc(N4CCN(C(=O)C5CCN(c6ccc(NC(=O)c7cnc(Oc8ccccc8)nc7)cc6)CC5)CC4)c3C2=O)C(=O)N1 (stereo not given) | Active | Activity [3]: inactive; Activity (KU812 [4]): inactive; Activity [5]: inactive; Activity [6]: 30.8%; Activity [7]: 12.9%; Activity [8]: inactive; Activity [10]: inactive; Activity [11]: Active
140 | 0.024 | – | CN1C(=O)CCC(N2C(=O)c3cccc(N4CCN(C(=O)C5CCN(c6ccc(NC(=O)c7cnc(Oc8ccccc8)nc7)cc6)CC5)CC4)c3C2=O)C1=O (stereo not given) | Active | –

Continued, compound first:

SMILES | IC50 [1] [nM] | DC50 [9] [nM] | inhibition [1] | Activity (KU812 [2]) | other results
O=C1CCC(N2C(=O)c3cccc(NCCNC(=O)C4CCN(c5ccc(NC(=O)c6cnc(Oc7ccccc7)nc6)cc5)CC4)c3C2=O)C(=O)N1 (stereo not given) | – | – | inactive | – | –
Nc1cccc2c1C(=O)N(C1CCC(=O)NC1=O)C2=O (stereo not given) | – | – | – | inactive | –
O=C(Nc1ccc(N2CCC(C(=O)N3CCOCC3)CC2)cc1)c1cnc(Oc2ccccc2)nc1 | 170 | – | – | Active | –
O=C1CCC(N2C(=O)c3cccc(N4CCN(c5ccc(NC(=O)c6cnc(Oc7ccccc7)nc6)cc5)CC4)c3C2=O)C(=O)N1 (stereo not given) | – | – | inactive | – | Activity ([9]; KU812 cell line): inactive

Source: ChEMBL document CHEMBL5055658, “Discovery of a Highly Potent and Selective Degrader Targeting Hematopoietic Prostaglandin D Synthase via In Silico Design” (J Med Chem, 2021)
